Reference: ChEMBL document CHEMBL4715866, “A Chemical Probe for Dark Kinase STK17B Derives Its Potency and High Selectivity through a Unique P-Loop Conformation” (J Med Chem, 2020)
Values after ≈ are worked out from the molar mass of the structure shown.

Legend:
[1] = biological target: T1, Serine/threonine-protein kinase 17B (Homo sapiens, UniProt O94768); test: Inhibition of N-terminal His-tagged STK17B kinase domain (25 to 329 residues) (unknown origin) expressed in Escherichia coli incubated for 90 mins by Kinase seeker split luciferase assay
T1 sequence (O94768 whole entry): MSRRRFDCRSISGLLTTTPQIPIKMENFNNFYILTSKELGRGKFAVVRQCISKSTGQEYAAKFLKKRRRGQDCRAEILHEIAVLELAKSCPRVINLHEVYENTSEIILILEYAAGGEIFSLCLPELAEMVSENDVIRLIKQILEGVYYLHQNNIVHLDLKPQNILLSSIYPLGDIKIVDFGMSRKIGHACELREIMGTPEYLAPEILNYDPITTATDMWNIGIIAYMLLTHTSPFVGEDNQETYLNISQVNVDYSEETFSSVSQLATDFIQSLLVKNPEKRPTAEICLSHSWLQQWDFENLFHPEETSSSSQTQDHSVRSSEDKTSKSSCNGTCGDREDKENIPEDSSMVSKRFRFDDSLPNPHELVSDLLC

[2] = biological target: T1, Serine/threonine-protein kinase 17B
[3] = Stability in mouse liver microsomes assessed as compound remaining at 0.1 mM in presence of NADPH regeneration system after 30 mins by LC-MS/MS analysis; format: ADME, Microsome; conditions: read-out: Stabilty
[4] = Kinetic solubility in pH 7.4 PBS; format: physicochemical; conditions: read-out: Kinetic_solubility
[5] = biological target: T2, Serine/threonine-protein kinase 17A (Homo sapiens, UniProt Q9UEE5); test: Binding affinity to STK17A (unknown origin) by KINOMEscan scanMAX assay
T2 sequence (Q9UEE5 whole entry): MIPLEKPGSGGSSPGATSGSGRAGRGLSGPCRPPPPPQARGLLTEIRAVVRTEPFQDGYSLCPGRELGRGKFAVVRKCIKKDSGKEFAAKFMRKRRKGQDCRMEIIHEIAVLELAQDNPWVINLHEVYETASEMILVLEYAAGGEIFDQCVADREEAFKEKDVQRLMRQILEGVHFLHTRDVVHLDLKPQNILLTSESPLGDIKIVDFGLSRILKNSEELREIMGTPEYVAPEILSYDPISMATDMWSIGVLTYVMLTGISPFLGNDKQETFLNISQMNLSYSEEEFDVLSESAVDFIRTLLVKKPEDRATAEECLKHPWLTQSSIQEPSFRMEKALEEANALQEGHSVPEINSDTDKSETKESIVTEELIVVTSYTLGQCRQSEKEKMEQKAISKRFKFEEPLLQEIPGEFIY

[6] = biological target: T1, Serine/threonine-protein kinase 17B; test: Binding affinity to N-terminal His-tagged STK17B kinase domain (25 to 329 residues) (unknown origin) expressed in Escherichia coli by KINOMEscan scanMAX assay
[7] = biological target: T2, Serine/threonine-protein kinase 17A; test: Inhibition of STK17A (unknown origin) incubated for 90 mins by Kinase seeker split luciferase assay
[8] = biological target: T3, Homeodomain-interacting protein kinase 4 (Homo sapiens, UniProt Q8NE63); test: Binding affinity to human HIPK4 by KINOMEscan scanMAX assay
T3 sequence (Q8NE63 whole entry): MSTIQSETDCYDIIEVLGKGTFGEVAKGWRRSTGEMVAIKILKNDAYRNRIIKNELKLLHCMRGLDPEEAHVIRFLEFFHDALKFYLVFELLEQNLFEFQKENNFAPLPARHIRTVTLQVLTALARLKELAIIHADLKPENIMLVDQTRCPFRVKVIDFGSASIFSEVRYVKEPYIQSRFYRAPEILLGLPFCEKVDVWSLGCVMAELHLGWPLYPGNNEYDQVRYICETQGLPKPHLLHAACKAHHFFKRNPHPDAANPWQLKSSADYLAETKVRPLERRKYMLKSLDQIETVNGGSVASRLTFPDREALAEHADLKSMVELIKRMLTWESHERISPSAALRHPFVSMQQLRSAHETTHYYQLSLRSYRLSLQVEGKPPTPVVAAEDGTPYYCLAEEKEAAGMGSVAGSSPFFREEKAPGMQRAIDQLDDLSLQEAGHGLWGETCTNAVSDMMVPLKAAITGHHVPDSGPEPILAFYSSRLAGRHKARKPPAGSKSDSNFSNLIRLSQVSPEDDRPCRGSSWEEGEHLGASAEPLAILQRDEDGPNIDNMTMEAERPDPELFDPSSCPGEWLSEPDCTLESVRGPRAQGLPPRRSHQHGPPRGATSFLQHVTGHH

SMILES: O=C(O)CSc1ncnc2cc(-c3ccc(Cl)c(Cl)c3)sc12
- IC50 [1]: 92 nM
- IC50 [2]: 310 nM

SMILES: CSc1ccc(-c2cc3ncnc(NCC(=O)O)c3s2)cc1
- IC50 [2]: > 10000 nM

SMILES: O=C(O)COc1ncnc2cc(-c3ccc(Cl)cc3)sc12
- IC50 [2]: > 10000 nM

SMILES: O=C(O)CSc1ncnc2sc(-c3ccc(Cl)c(Cl)c3)cc12
- IC50 [2]: > 10000 nM

SMILES: COc1cccc(-c2cc3c(SCC(=O)O)ncnc3s2)c1
- IC50 [2]: > 10000 nM

SMILES: COc1ccc(-c2cc3c(SCC(=O)O)ncnc3s2)cc1
- IC50 [2]: > 10000 nM

SMILES: CC(=O)Nc1cccc(-c2cc3ncnc(SCC(=O)O)c3s2)c1
- IC50 [1]: 35 nM
- IC50 [2]: > 10000 nM

SMILES: O=C(O)CSc1ncnc2cc(-c3ccc(F)c(F)c3)sc12
- IC50 [1]: 74 nM
- remaining at 0.5 h, 100 µM [3]: 95%
- solubility kinetic [4]: 65 µg/mL (≈ 192 µM)
- IC50 [2]: 820 nM

SMILES: O=C(O)CSc1ncnc2cc(-c3ccc(C4CC4)cc3)sc12
- IC50 [1]: 62 nM
- remaining at 0.5 h, 100 µM [3]: 66%
- solubility kinetic [4]: 55 µg/mL (≈ 161 µM)
- IC50 [2]: 530 nM

SMILES: CSc1ccc(-c2cc3c(SCC(=O)O)ncnc3s2)cc1
- IC50 [2]: > 10000 nM

SMILES: CC(C)c1ccc(-c2cc3ncnc(SCC(=O)O)c3s2)cc1
- IC50 [1]: 59 nM
- remaining at 0.5 h, 100 µM [3]: 35%
- solubility kinetic [4]: 23 µg/mL (≈ 66.8 µM)
- IC50 [2]: 550 nM

SMILES: O=C(O)CSc1ncnc2cc(-c3cccs3)sc12
- IC50 [1]: 63 nM
- remaining at 0.5 h, 100 µM [3]: 47%
- solubility kinetic [4]: 56 µg/mL (≈ 182 µM)
- IC50 [2]: 650 nM

SMILES: O=C(O)CSc1ncnc2cc(-c3ccc(C(F)(F)F)cc3)sc12
- IC50 [1]: 33 nM
- remaining at 0.5 h, 100 µM [3]: 88%
- solubility kinetic [4]: 57 µg/mL (≈ 154 µM)
- IC50 [2]: 340 nM

SMILES: O=C(O)CSc1ncnc2cc(-c3ccc(N4CCOCC4)cc3)sc12
- IC50 [1]: 14 nM
- remaining at 0.5 h, 100 µM [3]: 63%
- solubility kinetic [4]: 61 µg/mL (≈ 157 µM)
- IC50 [2]: 720 nM

SMILES: C=Cc1ccc(-c2cc3ncnc(SCC(=O)O)c3s2)cc1
- IC50 [1]: 28 nM
- remaining at 0.5 h, 100 µM [3]: 38%
- solubility kinetic [4]: 74 µg/mL (≈ 225 µM)
- IC50 [2]: 120 nM

SMILES: CSc1cccc(-c2cc3c(SCC(=O)O)ncnc3s2)c1
- IC50 [2]: > 10000 nM

SMILES: COc1ccc(-c2cc3ncnc(SCC(=O)O)c3s2)cc1F
- IC50 [1]: 18 nM
- remaining at 0.5 h, 100 µM [3]: 88%
- solubility kinetic [4]: 49 µg/mL (≈ 140 µM)
- IC50 [2]: 700 nM

SMILES: O=C(O)CSc1ncnc2cc(-c3ccccc3F)sc12
- IC50 [1]: 60 nM
- remaining at 0.5 h, 100 µM [3]: 45%
- solubility kinetic [4]: 51 µg/mL (≈ 159 µM)
- IC50 [2]: 1200 nM

SMILES: O=C(O)CSc1ncnc2sc(-c3cc4ccccc4s3)cc12
- Kd [5]: 9800 nM
- Kd [6]: 910 nM
- IC50 [1]: 4800 nM
- IC50 [7]: > 10000 nM
- Kd [8]: 290 nM
- IC50 [2]: > 10000 nM

SMILES: O=C(O)CSc1ncnc2cc(-c3cccc(F)c3)sc12
- IC50 [1]: 49 nM
- IC50 [2]: 980 nM

SMILES: COc1ccccc1-c1cc2ncnc(SCC(=O)O)c2s1
- IC50 [1]: 110 nM
- remaining at 0.5 h, 100 µM [3]: 24%
- solubility kinetic [4]: 69 µg/mL (≈ 208 µM)
- IC50 [2]: 1700 nM

SMILES: CSc1cccc(-c2cc3ncnc(SCC(=O)O)c3s2)c1
- IC50 [1]: 49 nM
- IC50 [2]: 500 nM

SMILES: CSc1ccc(-c2cc3ncnc(SCC(=O)O)c3s2)cc1
- Kd [5]: 230 nM
- IC50 [1]: 20 nM
- remaining at 0.5 h, 100 µM [3]: 0%
- solubility kinetic [4]: 42 µg/mL (≈ 121 µM)
- IC50 [2]: 210 nM

SMILES: CSc1ccc(-c2cc3ncnc(SCC(=O)O)c3s2)cc1F
- IC50 [1]: 27 nM
- remaining at 0.5 h, 100 µM [3]: 18%
- solubility kinetic [4]: 52 µg/mL (≈ 142 µM)
- IC50 [2]: 530 nM

SMILES: C[S+]([O-])c1ccc(-c2cc3ncnc(SCC(=O)O)c3s2)cc1 (stereo not drawn)
- IC50 [1]: 7 nM
- IC50 [2]: > 10000 nM

SMILES: CC(=O)Nc1ccc(-c2cc3ncnc(SCC(=O)O)c3s2)cc1
- IC50 [1]: 23 nM
- IC50 [2]: > 10000 nM

SMILES: CC(=O)c1ccc(-c2cc3ncnc(SCC(=O)O)c3s2)cc1
- IC50 [1]: 13 nM
- IC50 [2]: 1500 nM

SMILES: CC(=O)c1ccc(-c2cc3ncnc(SCC(=O)O)c3s2)cn1
- IC50 [1]: 37 nM
- IC50 [2]: > 10000 nM

SMILES: N#Cc1ccc(-c2cc3ncnc(SCC(=O)O)c3s2)cc1
- IC50 [1]: 35 nM
- IC50 [2]: 3200 nM

SMILES: CCOC(=O)CNc1ncnc2cc(-c3ccc(SC)cc3)sc12
- IC50 [2]: > 10000 nM

SMILES: CCOC(=O)COc1ncnc2cc(-c3ccc(Cl)cc3)sc12
- IC50 [2]: > 10000 nM

SMILES: O=C(O)CSc1ncnc2cc(-c3cccc(N4CCOCC4)c3)sc12
- IC50 [1]: 83 nM
- remaining at 0.5 h, 100 µM [3]: 73%
- solubility kinetic [4]: 54 µg/mL (≈ 139 µM)
- IC50 [2]: 2900 nM

SMILES: CCc1ccc(-c2cc3ncnc(SCC(=O)O)c3s2)cc1
- IC50 [1]: 41 nM
- IC50 [2]: 380 nM

SMILES: O=C(O)CSc1ncnc2cc(-c3ccc(Cl)cc3)sc12
- IC50 [1]: 39 nM
- IC50 [2]: 680 nM

SMILES: CSc1ccc(-c2cc3ncnc(SCC(N)=O)c3s2)cc1
- IC50 [2]: > 10000 nM

SMILES: O=C(O)CSc1ncnc2cc(-c3cccc(OC(F)(F)F)c3)sc12
- IC50 [1]: 280 nM
- IC50 [2]: 500 nM

SMILES: COc1ccccc1-c1cc2c(SCC(=O)O)ncnc2s1
- IC50 [1]: 880 nM
- IC50 [2]: > 10000 nM

SMILES: O=C(O)CSc1ncnc2cc(-c3ccc(OCc4ccccc4)cc3)sc12
- IC50 [1]: 110 nM
- IC50 [2]: > 10000 nM

SMILES: CCOC(=O)c1ccc(-c2cc3ncnc(SCC(=O)O)c3s2)cc1
- IC50 [1]: 40 nM
- remaining at 0.5 h, 100 µM [3]: 0%
- solubility kinetic [4]: 59 µg/mL (≈ 158 µM)
- IC50 [2]: 870 nM

SMILES: CC(C)Sc1ccc(-c2cc3ncnc(SCC(=O)O)c3s2)cc1
- IC50 [1]: 49 nM
- IC50 [2]: > 10000 nM
